# Assay results from the supplement of paper PMC11451515.
# Test system: P12-Ichikawa
# Test: cell viability relative to DMSO control; higher = less cytotoxic
# Conditions: 48 h
# Method in brief: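 Three leukemia lines were tested: NOMO1 and SEM at 500 cells/well and P12-Ichikawa at 1000 cells/well. Each was adapted for at least four passages in each medium and seeded in 5 μl in 1536-well plates, and library compounds in DMSO were pin-dosed from 47 μM to 0.79 nM in 11 threefold steps. After 48 h at 37°C, CellTiter-Glo One luminescence was read. Viability is a percentage relative to DMSO wells on each plate, with cell-free wells as background.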
# [1] = HPLM + 10% dialyzed FBS, 0.000781 µM
# [2] = HPLM + 10% dialyzed FBS, 0.00234 µM
# [3] = HPLM + 10% dialyzed FBS, 0.00702 µM
# [4] = HPLM + 10% dialyzed FBS, 0.0211 µM
# [5] = HPLM + 10% dialyzed FBS, 0.0632 µM
# [6] = HPLM + 10% dialyzed FBS, 0.19 µM
# [7] = HPLM + 10% dialyzed FBS, 0.569 µM
# [8] = HPLM + 10% dialyzed FBS, 1.71 µM
# [9] = HPLM + 10% dialyzed FBS, 5.12 µM
# [10] = HPLM + 10% dialyzed FBS, 15.4 µM
# [11] = HPLM + 10% dialyzed FBS, 46.1 µM
# [12] = RPMI 5 mM glucose + 10% FBS, 0.000781 µM
# [13] = RPMI 5 mM glucose + 10% FBS, 0.00234 µM
# [14] = RPMI 5 mM glucose + 10% FBS, 0.00702 µM
# [15] = RPMI 5 mM glucose + 10% FBS, 0.0211 µM
# [16] = RPMI 5 mM glucose + 10% FBS, 0.0632 µM
# [17] = RPMI 5 mM glucose + 10% FBS, 0.19 µM
# [18] = RPMI 5 mM glucose + 10% FBS, 0.569 µM
# [19] = RPMI 5 mM glucose + 10% FBS, 1.71 µM
# [20] = RPMI 5 mM glucose + 10% FBS, 5.12 µM
# [21] = RPMI 5 mM glucose + 10% FBS, 15.4 µM
# [22] = RPMI 5 mM glucose + 10% FBS, 46.1 µM
# [23] = RPMI 5 mM glucose + 10% dialyzed FBS, 0.000781 µM
# [24] = RPMI 5 mM glucose + 10% dialyzed FBS, 0.00234 µM
# [25] = RPMI 5 mM glucose + 10% dialyzed FBS, 0.00702 µM
# [26] = RPMI 5 mM glucose + 10% dialyzed FBS, 0.0211 µM
# [27] = RPMI 5 mM glucose + 10% dialyzed FBS, 0.0632 µM
# [28] = RPMI 5 mM glucose + 10% dialyzed FBS, 0.19 µM
# [29] = RPMI 5 mM glucose + 10% dialyzed FBS, 0.569 µM
# [30] = RPMI 5 mM glucose + 10% dialyzed FBS, 1.71 µM
# [31] = RPMI 5 mM glucose + 10% dialyzed FBS, 5.12 µM
# [32] = RPMI 5 mM glucose + 10% dialyzed FBS, 15.4 µM
# [33] = RPMI 5 mM glucose + 10% dialyzed FBS, 46.1 µM
Compound,cell viability [1],cell viability [2],cell viability [3],cell viability [4],cell viability [5],cell viability [6],cell viability [7],cell viability [8],cell viability [9],cell viability [10],cell viability [11],cell viability [12],cell viability [13],cell viability [14],cell viability [15],cell viability [16],cell viability [17],cell viability [18],cell viability [19],cell viability [20],cell viability [21],cell viability [22],cell viability [23],cell viability [24],cell viability [25],cell viability [26],cell viability [27],cell viability [28],cell viability [29],cell viability [30],cell viability [31],cell viability [32],cell viability [33]
O=C1\C=C(/OC2=C1C=CC=C2C3=CC=CC=C3)N4CCOCC4,88.3%,93%,95.2%,91.3%,96.3%,90.1%,94.4%,86.5%,87.6%,85.3%,87.1%,89.1%,84.5%,87.6%,89.8%,91.5%,86%,75.4%,76.8%,81.2%,74.1%,67.9%,86.7%,84.4%,84.1%,84.6%,89.7%,84.1%,86%,77.2%,82.4%,80.3%,74.1%
CO/N=C(/C(=O)N[C@@H]1C(=O)N2C(C(=O)O)=C(Cn3ccc(=N)n3CCO)CS[C@H]12)c1csc(N)n1,121%,123%,125%,136%,135%,126%,134%,126%,141%,137%,125%,,,,,,,,,,,,,,,,,,,,,,
CC(C)C[C@H](CN)CC(=O)O,111%,106%,106%,109%,106%,103%,101%,102%,95.7%,94.2%,93%,99.4%,105%,102%,96.2%,101%,99.3%,93.6%,96.1%,92.3%,91.5%,95.6%,103%,102%,107%,106%,97.1%,96%,98.9%,96.6%,95.7%,97.9%,98.4%
CCOC(=O)C/1=C(C)/NC(=S)NC1C2=CC=CC(=C2)O (configuration not stated),110%,115%,115%,118%,125%,59%,9.07%,6.6%,5.26%,6.98%,5.13%,106%,110%,128%,128%,112%,42.6%,11%,8.73%,7.18%,8.04%,9.16%,102%,102%,113%,113%,120%,93.4%,21%,14.2%,7.5%,9.98%,11.8%
COC[C@H](NC(=O)c1cnc(C)s1)C(=O)N[C@@H](COC)C(=O)N[C@@H](Cc1ccccc1)C(=O)[C@@]1(C)CO1,96.6%,99.8%,98.3%,95%,105%,69.8%,4.41%,3.23%,1.91%,1.12%,2.28%,89%,98.2%,99.8%,96.3%,89.8%,78.5%,3.57%,2.76%,1.79%,1.04%,1.83%,90.8%,93.5%,94.3%,95.7%,87.4%,58.1%,3.41%,2.83%,1.67%,0.842%,1.82%
COc1ccc(/C=C\c2cc(OC)c(OC)c(OC)c2)cc1O,21%,15%,12.9%,11.3%,11.9%,9.68%,9.98%,8.29%,5.6%,4.13%,3.74%,27.5%,22%,13.8%,14.2%,11.2%,11.2%,10.4%,10.6%,7.66%,3.98%,2.78%,33.5%,26.7%,20.4%,14.9%,15.3%,14.3%,13.1%,11%,9.65%,7.03%,3.92%
NC(=O)N1c2ccccc2CC(=O)c2ccccc21,115%,116%,121%,125%,124%,138%,129%,128%,132%,127%,134%,,,,,,,,,,,,,,,,,,,,,,
CNC(=O)[C@H](Cc1ccccc1)NC(=O)[C@H](CC(C)C)[C@H](CSc1cccs1)C(=O)NO,86.3%,86.4%,86.3%,98.3%,87.4%,95.1%,89.7%,82.9%,81.9%,73.8%,66.8%,83.3%,87.2%,78.9%,87%,78%,82.8%,88.1%,82.9%,71%,59.2%,52.6%,85.3%,89.7%,82.2%,88.3%,84.3%,91%,90.1%,79.5%,72.5%,63.5%,53%
O=C(O)c1ccc2cc(-c3ccc(O)c(C45CC6CC(CC(C6)C4)C5)c3)ccc2c1,124%,119%,124%,121%,121%,107%,66.5%,19.2%,10.4%,9.2%,7.25%,116%,123%,134%,122%,117%,96.9%,57.1%,16%,8.71%,8.22%,5.78%,,,,,,,,,,,
